Common to all, as to format: biochemical
One test deals with T1, PI3K beta (Homo sapiens, UniProt P42338).
T1 construct: His (N); host or cells: SF9 cells (baculovirus)
Nature of the test: Human PI3K beta enzyme assay (HTRF). The text has this: (§1) The catalytic subunits of PI3Ks are cloned into either pDEST8 (p110 alpha) or pDEST10 (p110beta, p110delta, and p110gamma) as N-terminal His tagged fusion proteins using the Gateway system (Invitrogen, catalog #11804-010 for pDEST8 and 11806-015 for pDEST10). The sequences are verified before recombinant protein expression using the Baculovirus Expression System with Gateway® Technology. The accession numbers for the subunits are as follows:
(§2) For expression of the p110 complexes, the p85 (MOI of 4) is co-infected with p110 alpha, beta, and delta respectively (1MOI) in SF9 cells and harvested at 60 hours post co-infection. P110 gamma was infected at 1 MOI and harvested at 60 hours post infection.
(§3) For purification, PI3Ks are purified by Ni-NTA Agarose (Qiagen #30250) followed by Mono Q 10/100 GL (Ge Healthcare #17-5167-01). VPS34 is purified by Glutathione Sepharose 4 Fast Flow (GE Healthcare #17-5132-03) followed by HiTrap Q (GE Healthcare #17-1153-01).
(§4) 0.5 uL compounds in DMSO are added to wells of a 384 well microtitre plate (Corning 3575). At room temperature: 10 ul PI3K reaction buffer (50 mM Hepes, 5 mM DTT, 150 mM NaCl, 10 mM beta-glycerophosphate, 10 mM MgCl2, 0.25 mM sodium cholate and 0.001% CHAPS, pH 7.00) containing ATP (25 uM, Promega) is added followed immediately by 10 ul PI3K reaction buffer containing di-C8 PI(4,5)P2 (3.5 uM, CellSignals) and PI3Kalpha (0.4875 nM, Millennium Protein Sciences Group) and the mixture is incubated with shaking at room temperature for 30 minutes. Then 5 ul PI3K stop mix (50 mM Hepes, 5 mM DTT, 150 mM NaCl, 0.01% Tween-20, 15 mM EDTA and 25 nM biotin-PI(3,4,5)P3 (Echelon) is added to quench the reaction followed immediately by addition of 5 ul HTRF detection mix (50 mM Hepes, 5 mM DTT, 150 mM NaCl, 0.01% Tween-20, 40 mM KF, 10 nM GST:GRP-1 PH domain (Millennium Protein Sciences Group), 15 nM Streptavidin-XL (CisBio) and 0.375 nM anti-GST Eu++ antibody (CisBio) at pH 7.00). The plates are then incubated for 1 hour at room temperature with shaking and then read on a BMG PheraStar Plus reader.
(§5) 2) Human PI3K beta, delta and gamma isoforms are tested using the procedure described for PI3K alpha above but with the following changes: PI3K beta (5.25 nM), PI3K delta (0.75 nM) and PI3K gamma (5 nM). All isoforms supplied by Millennium Protein Science Group.
(§6) For the assay methods described above, test compound percent inhibition, at various concentrations, is calculated relative to control (DMSO and EDTA) treated samples. Compound concentration versus percent inhibition curves are fitted to generate IC50 values. One skilled in the art will appreciate that the values generated either as percentage inhibition at a single concentration or IC50 values are subject to experimental variation.

A further test concerns the target T2, PI3K delta (Homo sapiens, UniProt O00329).
T2 construct: His (N); host or cells: SF9 cells (baculovirus)
Nature of the test: Human PI3K delta enzyme assay (HTRF).
Source text: as §1, §2, §3, §4, §5, §6
(In TR-FRET formats the signal depends on donor and acceptor labels being close together.)

The next test concerns the target T3, PI3K gamma (Homo sapiens, UniProt P48736).
T3 construct: His (N); host or cells: SF9 cells (baculovirus)
Nature of the test: Human PI3K gamma enzyme assay (HTRF).
Source text: as §1, §2, §3, §4, §5, §6

A further test deals with T4, PI3Kalpha (Homo sapiens, UniProt P42336).
T4 construct: His (N); host or cells: SF9 cells (baculovirus)
Nature of the test: Human PI3K alpha enzyme assay (HTRF).
Source text: as §1, §2, §3
1) Human PI3K Alpha Enzyme Assay Method
as §4, §6

The target in a further test is T5, VPS34 (Homo sapiens, UniProt Q8NEB9).
T5 construct: GST (N); host or cells: SF9 cells (baculovirus)
Nature of the test: Human VPS34 enzyme assay (Adapta Universal Kinase Assay). The note with it: 1 h; at a 1.0 μM concentration; read-out: VPS34 Percent Inhibition. On the procedure:
VPS34 (accession number GB:BC033004) is cloned into pDEST20-Thombin as N-terminal GST tagged fusion proteins using the Gateway system (Invitrogen, catalog #11804-013). The sequences are verified before recombinant protein expression using the Baculovirus Expression System with Gateway® Technology.
For expression VPS34 was infected at 1MOI in SF9 cells and harvested 72 hours post infection.
For purification, VPS34 is purified by Glutathione Sepharose 4 Fast Flow (GE Healthcare #17-5132-03) followed by HiTrap Q (GE Healthcare #17-1153-01).
3) VPS34 is assayed using Adapta™ Universal Kinase Assay Kit (Invitrogen).
4) Human VPS34 enzyme assay method
100 nL compounds in DMSO are added to wells of a 384 well microtitre plate (Greiner 780076). […] The plates are then incubated for 30 minutes at room temperature with shaking and then read on a BMG PheraStar Plus reader.
For the assay methods described above, test compound percent inhibition, at various concentrations, is calculated relative to control (DMSO and EDTA) treated samples. […]

Setting [1] is: concentration not given, read-out: p110 beta Percent Inhibition.
Where [2] appears, read: concentration not given, b1433 gives 1.0 μM for PI3K δ and γ, read-out: p110 delta Percent Inhibition.
Setting [3] is: concentration not given, b1433 gives 1.0 μM for PI3K δ and γ, read-out: p110 gamma Percent Inhibition.
The mark [4] stands for this setting: concentration not given, read-out: p110 alpha Percent Inhibition.
The mark [5] stands for this setting: at a 1.1 μM concentration, read-out: PI3Kβ Percent Inhibition.
The mark [6] stands for this setting: at a 1.0 μM concentration, read-out: PI3Kδ Percent Inhibition.
[7] abbreviates: at a 1.0 μM concentration, read-out: PI3Kγ Percent Inhibition.
Setting [8] is: at a 1.1 μM concentration, read-out: PI3Kα Percent Inhibition.

Among the data in patent publication US8796271B2, “Heteroaryls and uses thereof” (Millennium Pharmaceuticals, Inc., priority 2010, dated 2014) are inhibition values, retold here.

Like-named read-outs stand apart in the source and are kept apart here.

T2 sequence (O00329 whole entry): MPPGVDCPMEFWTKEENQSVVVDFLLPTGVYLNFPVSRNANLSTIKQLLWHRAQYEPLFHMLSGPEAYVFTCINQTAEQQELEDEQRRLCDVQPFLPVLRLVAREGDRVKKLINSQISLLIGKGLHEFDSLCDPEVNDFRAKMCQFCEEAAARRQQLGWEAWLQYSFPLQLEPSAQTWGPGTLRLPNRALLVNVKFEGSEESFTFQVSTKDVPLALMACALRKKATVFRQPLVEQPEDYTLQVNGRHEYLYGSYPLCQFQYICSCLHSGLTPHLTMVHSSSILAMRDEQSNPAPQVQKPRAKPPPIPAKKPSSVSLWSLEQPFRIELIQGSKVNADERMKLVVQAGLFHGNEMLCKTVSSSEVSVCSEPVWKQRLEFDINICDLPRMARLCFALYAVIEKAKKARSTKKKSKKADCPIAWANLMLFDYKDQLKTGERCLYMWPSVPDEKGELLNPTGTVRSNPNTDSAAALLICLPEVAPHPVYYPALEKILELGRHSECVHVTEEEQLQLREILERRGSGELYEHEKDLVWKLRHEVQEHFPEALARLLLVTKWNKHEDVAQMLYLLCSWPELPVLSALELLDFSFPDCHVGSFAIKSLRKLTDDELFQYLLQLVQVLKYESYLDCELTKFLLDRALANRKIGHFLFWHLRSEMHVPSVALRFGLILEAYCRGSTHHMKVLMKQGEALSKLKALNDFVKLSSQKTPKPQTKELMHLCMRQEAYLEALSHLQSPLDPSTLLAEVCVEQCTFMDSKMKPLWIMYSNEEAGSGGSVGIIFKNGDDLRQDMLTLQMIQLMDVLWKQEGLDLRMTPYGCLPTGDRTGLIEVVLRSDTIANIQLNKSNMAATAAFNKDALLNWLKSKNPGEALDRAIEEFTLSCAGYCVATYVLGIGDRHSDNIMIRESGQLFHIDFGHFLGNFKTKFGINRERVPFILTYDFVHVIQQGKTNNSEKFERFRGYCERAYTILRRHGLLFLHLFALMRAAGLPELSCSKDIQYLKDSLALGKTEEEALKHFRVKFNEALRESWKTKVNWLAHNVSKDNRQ
T2 sequence (P27986 whole entry partner): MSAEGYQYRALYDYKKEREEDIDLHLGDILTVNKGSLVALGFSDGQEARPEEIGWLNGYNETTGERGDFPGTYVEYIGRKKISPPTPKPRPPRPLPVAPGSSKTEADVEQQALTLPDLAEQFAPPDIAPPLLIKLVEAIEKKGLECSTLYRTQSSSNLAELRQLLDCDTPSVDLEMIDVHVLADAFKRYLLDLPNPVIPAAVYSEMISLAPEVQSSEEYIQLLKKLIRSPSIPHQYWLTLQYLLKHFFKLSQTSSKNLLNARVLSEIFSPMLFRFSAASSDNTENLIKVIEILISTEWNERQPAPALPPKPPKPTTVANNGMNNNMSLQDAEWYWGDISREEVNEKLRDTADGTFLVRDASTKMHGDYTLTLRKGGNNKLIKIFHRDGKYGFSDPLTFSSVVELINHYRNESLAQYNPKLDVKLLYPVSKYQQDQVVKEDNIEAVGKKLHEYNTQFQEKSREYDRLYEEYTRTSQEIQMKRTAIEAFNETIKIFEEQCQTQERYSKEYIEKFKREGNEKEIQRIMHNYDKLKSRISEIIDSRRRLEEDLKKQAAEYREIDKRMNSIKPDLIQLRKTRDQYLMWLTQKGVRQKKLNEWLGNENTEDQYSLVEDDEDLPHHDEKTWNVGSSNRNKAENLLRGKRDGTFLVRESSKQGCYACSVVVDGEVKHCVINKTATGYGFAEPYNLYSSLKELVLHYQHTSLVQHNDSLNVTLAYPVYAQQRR
T4 sequence (P42336 whole entry): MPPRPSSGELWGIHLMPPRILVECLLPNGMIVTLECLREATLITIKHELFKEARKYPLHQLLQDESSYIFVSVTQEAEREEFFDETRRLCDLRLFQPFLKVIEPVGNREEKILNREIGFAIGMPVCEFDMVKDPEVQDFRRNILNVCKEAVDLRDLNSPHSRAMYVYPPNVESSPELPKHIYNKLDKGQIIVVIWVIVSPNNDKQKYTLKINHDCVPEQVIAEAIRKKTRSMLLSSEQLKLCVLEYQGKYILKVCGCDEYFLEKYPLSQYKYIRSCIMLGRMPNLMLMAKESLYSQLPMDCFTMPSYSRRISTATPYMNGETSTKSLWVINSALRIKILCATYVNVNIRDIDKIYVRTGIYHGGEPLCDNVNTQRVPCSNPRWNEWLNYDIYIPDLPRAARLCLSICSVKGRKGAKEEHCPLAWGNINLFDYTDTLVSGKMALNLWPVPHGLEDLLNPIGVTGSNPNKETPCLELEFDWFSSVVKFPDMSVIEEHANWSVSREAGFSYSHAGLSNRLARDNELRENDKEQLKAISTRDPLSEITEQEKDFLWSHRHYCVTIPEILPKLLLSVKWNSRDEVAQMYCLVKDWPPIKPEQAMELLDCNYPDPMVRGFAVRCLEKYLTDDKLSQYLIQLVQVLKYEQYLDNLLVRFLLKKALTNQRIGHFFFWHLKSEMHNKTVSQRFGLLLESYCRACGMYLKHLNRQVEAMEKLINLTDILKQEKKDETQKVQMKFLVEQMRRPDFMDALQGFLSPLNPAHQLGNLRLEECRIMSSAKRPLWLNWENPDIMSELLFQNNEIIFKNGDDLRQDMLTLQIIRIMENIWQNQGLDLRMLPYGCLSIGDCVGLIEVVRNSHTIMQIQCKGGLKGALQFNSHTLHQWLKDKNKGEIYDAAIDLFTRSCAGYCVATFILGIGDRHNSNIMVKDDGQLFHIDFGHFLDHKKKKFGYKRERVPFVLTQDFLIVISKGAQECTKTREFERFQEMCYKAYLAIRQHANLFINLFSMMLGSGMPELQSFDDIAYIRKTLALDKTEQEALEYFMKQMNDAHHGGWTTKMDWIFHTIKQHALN
T4 sequence (P27986 whole entry partner): as the sequence (P27986 whole entry partner) above
T3 sequence (P48736 whole entry): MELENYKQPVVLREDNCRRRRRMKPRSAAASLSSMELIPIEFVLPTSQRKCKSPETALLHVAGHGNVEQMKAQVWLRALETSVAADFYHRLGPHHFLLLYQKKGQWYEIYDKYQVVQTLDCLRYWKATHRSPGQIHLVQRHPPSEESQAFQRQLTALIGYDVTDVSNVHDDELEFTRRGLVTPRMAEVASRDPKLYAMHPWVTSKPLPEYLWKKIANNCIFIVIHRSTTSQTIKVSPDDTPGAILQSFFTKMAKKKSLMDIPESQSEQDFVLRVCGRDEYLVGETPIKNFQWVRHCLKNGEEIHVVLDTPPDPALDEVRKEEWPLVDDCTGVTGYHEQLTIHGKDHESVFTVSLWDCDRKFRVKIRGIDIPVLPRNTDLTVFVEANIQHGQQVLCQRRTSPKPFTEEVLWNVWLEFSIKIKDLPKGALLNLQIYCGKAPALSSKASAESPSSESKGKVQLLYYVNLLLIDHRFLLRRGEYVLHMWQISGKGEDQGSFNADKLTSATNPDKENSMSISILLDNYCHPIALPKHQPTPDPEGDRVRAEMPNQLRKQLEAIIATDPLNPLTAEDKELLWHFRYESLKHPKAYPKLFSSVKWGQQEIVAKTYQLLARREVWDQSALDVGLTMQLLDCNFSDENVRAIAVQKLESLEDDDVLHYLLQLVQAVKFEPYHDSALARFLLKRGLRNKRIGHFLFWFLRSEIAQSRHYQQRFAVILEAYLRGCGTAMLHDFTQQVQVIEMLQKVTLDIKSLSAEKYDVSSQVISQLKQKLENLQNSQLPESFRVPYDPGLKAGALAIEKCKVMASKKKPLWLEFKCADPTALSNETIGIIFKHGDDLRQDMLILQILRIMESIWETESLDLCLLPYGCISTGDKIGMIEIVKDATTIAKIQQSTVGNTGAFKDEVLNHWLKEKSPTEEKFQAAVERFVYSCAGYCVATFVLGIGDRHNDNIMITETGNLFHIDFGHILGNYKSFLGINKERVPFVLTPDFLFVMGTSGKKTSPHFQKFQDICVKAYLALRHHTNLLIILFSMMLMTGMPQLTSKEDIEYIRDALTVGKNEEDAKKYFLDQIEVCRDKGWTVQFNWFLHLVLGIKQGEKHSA
T1 sequence (P42338 whole entry): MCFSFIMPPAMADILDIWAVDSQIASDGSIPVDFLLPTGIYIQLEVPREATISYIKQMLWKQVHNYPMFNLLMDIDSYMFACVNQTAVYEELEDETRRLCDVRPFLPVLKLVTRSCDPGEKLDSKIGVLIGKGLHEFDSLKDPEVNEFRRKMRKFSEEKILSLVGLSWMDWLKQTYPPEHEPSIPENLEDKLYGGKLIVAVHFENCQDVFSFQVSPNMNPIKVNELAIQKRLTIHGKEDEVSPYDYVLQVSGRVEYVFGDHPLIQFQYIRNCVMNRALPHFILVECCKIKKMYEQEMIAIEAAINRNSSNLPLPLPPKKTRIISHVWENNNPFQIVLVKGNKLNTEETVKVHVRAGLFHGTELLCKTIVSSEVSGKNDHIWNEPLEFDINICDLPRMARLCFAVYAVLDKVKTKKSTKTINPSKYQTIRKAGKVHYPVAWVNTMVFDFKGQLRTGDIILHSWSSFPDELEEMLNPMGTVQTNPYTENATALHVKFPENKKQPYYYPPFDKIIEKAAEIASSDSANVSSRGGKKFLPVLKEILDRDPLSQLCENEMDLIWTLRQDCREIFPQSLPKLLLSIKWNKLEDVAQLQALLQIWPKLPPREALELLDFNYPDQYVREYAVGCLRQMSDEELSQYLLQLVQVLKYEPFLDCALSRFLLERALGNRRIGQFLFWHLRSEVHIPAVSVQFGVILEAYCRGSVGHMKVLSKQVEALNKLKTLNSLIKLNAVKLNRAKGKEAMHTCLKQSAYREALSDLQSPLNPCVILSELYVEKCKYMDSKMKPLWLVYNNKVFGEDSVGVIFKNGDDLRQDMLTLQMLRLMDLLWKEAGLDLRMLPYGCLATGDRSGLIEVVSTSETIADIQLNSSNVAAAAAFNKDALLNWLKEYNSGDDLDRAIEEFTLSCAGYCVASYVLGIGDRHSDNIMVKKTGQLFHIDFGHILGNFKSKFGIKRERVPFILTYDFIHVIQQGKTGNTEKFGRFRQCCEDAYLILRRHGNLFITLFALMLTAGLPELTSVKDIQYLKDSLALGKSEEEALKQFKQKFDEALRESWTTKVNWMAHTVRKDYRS
T1 sequence (P27986 whole entry partner): as the sequence (P27986 whole entry partner) above

As to `OC(c1cc(Br)cs1)c1cc(-c2ccncc2)sc1-c1nnc[nH]1` (stereo not shown) [Compound 233], the inhibition at 1.1 µM on PI3K beta (setting [1]) was 97%; on PI3Kalpha (setting [4]), 61%. The inhibition at 1 µM on PI3K delta (setting [2]) was determined as 74%; on PI3K gamma (setting [3]) it was 28%.

Take `N#Cc1c(N2CCOCC2)sc(C(N)=O)c1C(F)(F)c1ccc2ccccc2c1` [Compound 307]: the results for the inhibition at 1.1 µM on PI3K beta (setting [1]) and at PI3Kalpha (setting [4]) were 84% and 15%, respectively. Also, on PI3K gamma (setting [3]), the inhibition at 1 µM came out at 9%.

As for `N#Cc1c(N2CCOCC2)sc(C(=O)O)c1C(F)(F)c1ccc2ccccc2c1` [Compound 308], the inhibition at 1.1 µM at PI3K beta (setting [1]) stood at 106%; at PI3Kalpha (setting [4]), 41%. Moreover, the inhibition at 1 µM on PI3K gamma (setting [3]) amounted to 39%.

Take `N#Cc1c(N2CCOCC2)sc(C(=O)O)c1C(F)c1ccc2ccccc2c1` (stereo not shown) [Compound 345]: at PI3K beta (setting [1]), the inhibition at 1.1 µM stood at 105%. The inhibition at 1 µM on PI3K gamma (setting [3]) turned out to be 62%.

With `COc1cccc(C(O)c2cc(-c3ccncc3)sc2-c2nnc[nH]2)c1` (stereo not shown) [Compound 253], the inhibition at 1.1 µM came to 64% on PI3K beta (setting [1]) and 20% at PI3Kalpha (setting [4]). Besides, the inhibition at 1 µM at PI3K delta (setting [2]) came to 27%; on PI3K gamma (setting [3]), 2%.

Turning to `N#Cc1c(N2CCOCC2)sc(C(=O)O)c1Cc1cc2ccccc2cc1F` [Compound 295], the inhibition at 1.1 µM at PI3K beta (setting [1]) was 111%; at PI3Kalpha (setting [4]), 101%. Also, on PI3K gamma (setting [3]), the inhibition at 1 µM was determined as 76%.

Turning to `COC(c1ccc2ccccc2c1)c1c(C(=O)O)sc(N2CCOCC2)c1C#N` (stereo not shown) [Compound 337], the inhibition at 1.1 µM was determined as 60% on PI3K beta (setting [1]) and 14% at PI3Kalpha (setting [4]). Also, the inhibition at 1 µM on PI3K gamma (setting [3]) is 11%.

With `N#Cc1c(N2CCOCC2)sc(-c2nnn[nH]2)c1C(F)(F)c1ccc2ccccc2c1` [Compound 349], the inhibition at 1.1 µM on PI3K beta (setting [1]) is 108%; on PI3Kalpha (setting [4]), 43%. The inhibition at 1 µM on PI3K gamma (setting [3]) was 42%.

As for `N#Cc1c(N2CCOCC2)sc(C(=O)O)c1Cc1ccc2c(F)cccc2c1` [Compound 343], the values for the inhibition at 1.1 µM at PI3K beta (setting [1]) and at PI3Kalpha (setting [4]) were 110% and 84%, respectively. The inhibition at 1 µM on PI3K gamma (setting [3]) was determined as 67%.

For `c1ccc2cc(Cc3nc(N4CCOCC4)sc3-c3nnn[nH]3)ccc2c1` [Compound 360, 4-[4-(2-naphthylmethyl)-5-(1H-tetrazol-5-yl)-1,3-thiazol-2-yl]morpholine], the inhibition at 1.1 µM at PI3K beta (setting [1]) turned out to be 106%; on PI3Kalpha (setting [4]) it was 30%. Further, the inhibition at 1 µM was 110% at PI3K delta (setting [2]) and 49% on PI3K gamma (setting [3]).

Regarding `NCc1c[nH]c(-c2sc(-c3ccncc3)nc2Cc2ccc(Cl)cc2)n1` [Compound 255, (2-(4-(4-chlorobenzyl)-2-(pyridin-4-yl)thiazol-5-yl)-1H-imidazol-4-yl)methanamine], the figures for the inhibition at 1.1 µM at PI3K beta (setting [1]) and on PI3Kalpha (setting [4]) were 55% and 0%, respectively. Besides, the inhibition at 1 µM worked out at 39% on PI3K delta (setting [2]) and 5% at PI3K gamma (setting [3]).

With `N#Cc1c(N2CCOCC2)sc(C(=O)O)c1Cc1cc(F)c(F)cc1F` [Compound 107], the inhibition at 1 µM on VPS34 came out at 45.8%; on PI3K delta (setting [6]), 87.3%; on PI3K gamma (setting [7]), 20.2%. Besides, the inhibition at 1.1 µM on PI3K beta (setting [5]) came out at 103%; on PI3Kalpha (setting [8]) it was 49%.

`N#Cc1c(N2CCOCC2)sc(C(=O)O)c1Cc1ccc2ccccc2c1F` [Compound 293]: the inhibition at 1.1 µM on PI3K beta (setting [1]) was found to be 108%; at PI3Kalpha (setting [4]) it was 98%. Besides, the inhibition at 1 µM on PI3K gamma (setting [3]) stood at 78%.

`N#Cc1c(N2CCOCC2)sc(C(=O)O)c1Cc1cc(F)c2ccccc2c1` [Compound 324]: the inhibition at 1.1 µM at PI3K beta (setting [1]) was 118%; on PI3Kalpha (setting [4]), 107%. Besides, the inhibition at 1 µM at PI3K gamma (setting [3]) was 67%.

On to `N#Cc1c(N2CCOCC2)sc(C(=O)O)c1Cc1ccc2ccc(F)cc2c1` [Compound 287], for which the inhibition at 1.1 µM was 109% at PI3K beta (setting [1]) and 84% on PI3Kalpha (setting [4]). Moreover, at PI3K gamma (setting [3]), the inhibition at 1 µM is 69%.

Consider `N#Cc1c(N2CCOCC2)sc(C(=O)O)c1Cc1ccc(OC(F)(F)F)cc1` [Compound 102], for which the inhibition at 1 µM at VPS34 is 28.2%; at PI3K delta (setting [6]) it was 38.1%; on PI3K gamma (setting [7]), 6.8%. The inhibition at 1.1 µM worked out at 78% on PI3K beta (setting [5]) and 30% at PI3Kalpha (setting [8]).

With `N#Cc1c(N2CCOCC2)sc(C(=O)O)c1Cc1cc(F)c(Cl)cc1F` [Compound 300], the inhibition at 1.1 µM on PI3K beta (setting [1]) came out at 105%; on PI3Kalpha (setting [4]), 44%. The inhibition at 1 µM on PI3K gamma (setting [3]) was 46%.

With `N#Cc1c(N2CCOCC2)sc(C(=O)O)c1Cc1ccc2c(c1)CCCC2` [Compound 305], the inhibition at 1.1 µM at PI3K beta (setting [1]) turned out to be 106%; on PI3Kalpha (setting [4]), 37%. Further, the inhibition at 1 µM at PI3K gamma (setting [3]) was 37%.
